Values joined by “and” are separate entries in the source; they are usually repeats but may differ in a detail not shown here. Equal values may be shown once.
Assays:
[1] = tested on: CCND1, CCNA2, CCNB1, CDK2, CDK6 RNA in PC-9 cells; experiment: qPCR assay for cell cycle-related gene analysis; type: cell-based, human; conditions: endogenous control b-Actin, reference sample NC; for RQ, CCNB: target CCNB
Description: To better understand the mechanisms underlying cell cycle arrest induced by e4 and e12 in NSCLC cells, we assessed the expression levels of a few genes involved in cell cycle regulation, including cyclin D1 (CCND1), cyclin A2 (CCNA2), cyclin B1 (CCNB1), cyclin-dependent kinase 2 (CDK2), and cyclin-dependent kinase 6 (CDK6) in PC-9 by qPCR. […] CCNA2 is known to bind and activate CDK2 and thus promotes the transition through G1/S and G2/M. CCNB1 and CCND1 are essential to mitosis and G1/S transition respectively. While G2/M arrest weas not detected, the changes in these gene expression profiles interpret the G1/S arrests in PC-9 cells treated with e4 and e12. PC-9 cells exposed to the compounds for various periods should be examined further.
Total RNA of cells was extracted and cDNA was synthesized. The primers for the target products were designed as in Table 3.

wild-type EGFR = wild-type EGFR (Homo sapiens, UniProt P00533); experiment: EGFR kinase assay (ELISA); conditions: for A450: raw ELISA absorbance
wild-type EGFR, sequence (P00533 25-1210): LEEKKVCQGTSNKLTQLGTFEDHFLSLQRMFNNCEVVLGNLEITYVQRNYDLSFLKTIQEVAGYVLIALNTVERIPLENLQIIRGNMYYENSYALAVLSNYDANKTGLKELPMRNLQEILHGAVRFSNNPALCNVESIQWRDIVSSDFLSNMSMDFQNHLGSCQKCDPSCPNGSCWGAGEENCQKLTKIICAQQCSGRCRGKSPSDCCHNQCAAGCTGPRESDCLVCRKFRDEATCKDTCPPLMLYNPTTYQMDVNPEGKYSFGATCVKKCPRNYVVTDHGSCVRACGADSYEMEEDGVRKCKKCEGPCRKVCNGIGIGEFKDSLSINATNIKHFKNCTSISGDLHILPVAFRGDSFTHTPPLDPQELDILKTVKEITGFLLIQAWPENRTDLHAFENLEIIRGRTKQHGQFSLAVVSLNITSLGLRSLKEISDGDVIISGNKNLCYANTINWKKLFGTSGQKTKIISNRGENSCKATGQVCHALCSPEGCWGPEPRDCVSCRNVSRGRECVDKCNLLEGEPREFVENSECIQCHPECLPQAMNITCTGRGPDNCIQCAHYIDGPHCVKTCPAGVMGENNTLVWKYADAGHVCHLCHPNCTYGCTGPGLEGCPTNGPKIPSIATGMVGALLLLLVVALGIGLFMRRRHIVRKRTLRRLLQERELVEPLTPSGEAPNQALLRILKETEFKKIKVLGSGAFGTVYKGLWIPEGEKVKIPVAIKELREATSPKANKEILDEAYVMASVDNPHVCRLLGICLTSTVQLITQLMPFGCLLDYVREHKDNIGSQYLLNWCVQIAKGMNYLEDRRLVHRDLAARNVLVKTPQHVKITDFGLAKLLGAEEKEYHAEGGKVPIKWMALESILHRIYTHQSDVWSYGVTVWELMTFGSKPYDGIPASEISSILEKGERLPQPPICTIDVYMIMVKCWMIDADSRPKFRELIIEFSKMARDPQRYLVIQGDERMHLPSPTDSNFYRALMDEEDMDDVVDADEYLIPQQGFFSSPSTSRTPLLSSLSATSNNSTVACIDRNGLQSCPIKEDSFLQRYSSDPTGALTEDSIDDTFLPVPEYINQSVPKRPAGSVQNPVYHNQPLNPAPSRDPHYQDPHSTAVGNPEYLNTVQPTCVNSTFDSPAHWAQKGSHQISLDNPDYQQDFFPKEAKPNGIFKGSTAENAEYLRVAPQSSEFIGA
Method: The kinase enzyme of EGFR was purchased from Carna Bioscience (Kobe, Japan). A total of 10 ng/ml anti phosphotyrosine (PY713) antibody (abcam, Cambridge Science Park, United Kingdom) was precoated in 96-well ELISA plates. […] Then, a total of 3 μmol/L ATP was added and the reaction was continued for 2 h. […] After incubation, the wells were washed with PBS and then incubated with horseradish peroxidase (HRP)-conjugated streptavidin. The wells were visualized using 3,3′,5,5′-tetramethylbenzidine (TMB), and chromogenic reaction was ended with 2 mol/L H2SO4, the absorbance was read with a multimode plate reader (PerkinElmer, United States) at 450 nm.

PC-9 cells = experiment: Annexin V/PI flow cytometry for cell apoptosis, PC-9; type: cell-based, human; design: key to Apoptosis (sum of Q2 and Q3) / Apoptosis, Average: % apoptotic cells (Annexin V/PI flow cytometry); conditions: for Apoptosis, Average / Lymphocytes/Q2: FITC-A+ , PI-A+ Freq. of Parent / Lymphocytes/Q3: FITC-A+ , PI-A- Freq. of Parent / Apoptosis (sum of Q2 and Q3): PC-9, 48h; for Apoptosis, Average: average of three repeats; for Lymphocytes/Q2: FITC-A+ , PI-A+ Freq. of Parent / Lymphocytes/Q3: FITC-A+ , PI-A- Freq. of Parent: single runs; for Apoptosis (sum of Q2 and Q3): single repeats (Repeat 1-3)
Method: (§1) To establish whether the antiproliferative efficacy is associated with apoptosis, PC-9 and H460 cells were treated with compound e4 or e12 of various concentrations (4, 8 and 12 μM) for 48 h, and then assessed with flow cytometry.
(§2) Cell-apoptosis analysis was carried out by flow cytometry using the Annexin V/PI apoptosis kit according to the manufacturer’s manual. Briefly, PC-9 or H460 (3 × 10^4–5 × 10^4/well) cells were seeded in 12-well plates for 24 h, and then treated with 0.1% DMSO (as control) or various concentrations of compound e4 or e12 for 48 h, respectively. Cells were harvested, washed with PBS, and then incubated with 100ul of 1X Annexin V binding buffer containing 1 μl PI and 1 μl FITC Annexin V for 15 min at RT in the dark. 200 µl of 1X binding buffer were added to each tube for flow cytometry analysis (BD LSRFortessa™ Flow Cytometer). The percentages of apoptotic cells were analyzed using FlowJo soft.

H460 cells = experiment: Annexin V/PI flow cytometry for cell apoptosis, H460; type: cell-based, human; conditions: for Percentage of apoptosis, Average: average of three runs; for Q2+Q3 / Lymphocytes/Q2: FITC-A+ , PI-A+ Freq. of Parent / Lymphocytes/Q3: FITC-A+ , PI-A- Freq. of Parent / Percentage of apoptosis: single runs; for Q2+Q3: given as fraction; for Lymphocytes/Q2: FITC-A+ , PI-A+ Freq. of Parent / Lymphocytes/Q3: FITC-A+ , PI-A- Freq. of Parent / Percentage of apoptosis: time as in file name (24h, 48h or not given)
Method: as §1, §2

Structure (SMILES): COCCOc1cc2ncnc(Nc3cccc(-c4cn(Cc5cc(Br)cc(Br)c5)nn4)c3)c2cc1OCCOC [e4, [6,7-Bis-(2-methoxy-ethoxy)-quinazolin-4-yl]-{3-[1-(3,5-dibromo-benzyl)-1H-[1,2,3]triazol-4-yl]-phenyl}-amine]
- RQ, CCNB ([1]; 8uM): 0.7848
- RQ, CCNB ([1]; 12uM): 0.736
- RQ, CCND1 ([1]; target CCND1, 4uM): 0.8337
- RQ, CCND1 ([1]; target CCND1, 8uM): 0.7172
- RQ, CCND1 ([1]; target CCND1, 12uM): 0.6074
- RQ (CDK2) ([1]; target CDK2, 8uM): 1.1688
- RQ (CDK2) ([1]; target CDK2, 12uM): 0.9257
- RQ, CDK6 ([1]; target CDK6, 4uM): 0.8111
- RQ, CDK6 ([1]; target CDK6, 8uM): 0.824
- RQ, CDK6 ([1]; target CDK6, 12uM): 1.051
- inhibition at 100 fM (wild-type EGFR; concentration 0.0001 nM (reference for normalisation), one value per replicate column): 0%
- Inhibition (wild-type EGFR; concentration 0.03 nM, one value per replicate column, 3e-05 µM): 0.3205 and 0.9868
- inhibition at 0.0003 µM (wild-type EGFR; concentration 0.3 nM, one value per replicate column): 8.65%
- Inhibition (wild-type EGFR; concentration 0.3 nM, one value per replicate column, 0.0003 µM): 6.25
- inhibition at 0.003 µM (wild-type EGFR; concentration 3 nM, one value per replicate column): 8.97%
- Inhibition (wild-type EGFR; concentration 3 nM, one value per replicate column, 0.003 µM): 8.553
- inhibition at 0.03 µM (wild-type EGFR; concentration 30 nM, one value per replicate column): 9.62%
- Inhibition (wild-type EGFR; concentration 30 nM, one value per replicate column, 0.03 µM): 10.8553
- inhibition at 0.3 µM (wild-type EGFR; concentration 300 nM, one value per replicate column): 10.3%
- Inhibition (wild-type EGFR; concentration 300 nM, one value per replicate column, 0.3 µM): 11.1842
- inhibition at 3 µM (wild-type EGFR; concentration 3000 nM, one value per replicate column): 13.8%
- Inhibition (wild-type EGFR; concentration 3000 nM, one value per replicate column, 3 µM): 18.75
- inhibition at 30 µM (wild-type EGFR; concentration 30000 nM, one value per replicate column): 70.2%
- Inhibition (wild-type EGFR; concentration 30000 nM, one value per replicate column, 30 µM): 70.7237
- A450 (wild-type EGFR; concentration 0.0001 nM): 0.554 and 0.551
- A450 (wild-type EGFR; concentration 0.03 nM): 0.553 and 0.548
- A450 (wild-type EGFR; concentration 0.3 nM): 0.527 and 0.532
- A450 (wild-type EGFR; concentration 3 nM): 0.526 and 0.525
- A450 (wild-type EGFR; concentration 30 nM): 0.524 and 0.518
- A450 (wild-type EGFR; concentration 300 nM): 0.522 and 0.517
- A450 (wild-type EGFR; concentration 3000 nM): 0.511 and 0.494
- A450 (wild-type EGFR; concentration 30000 nM): 0.335 and 0.336
- IC50 (wild-type EGFR; read-out: IC50 (μM) EGFR, ELISA, 3 μmol/L ATP): 13 µM
- cell apoptosis (flow cytometry) (PC-9 cells; PC-9, 4, 8 and 12 μM, 48 h): significant cell apoptosis
- Apoptosis, Average (PC-9 cells; 4uM): 10.24
- Lymphocytes/Q2: FITC-A+ , PI-A+ Freq. of Parent (PC-9 cells; 4uM): 4.32% and 13.0% and 11.9%
- Lymphocytes/Q3: FITC-A+ , PI-A- Freq. of Parent (PC-9 cells; 4uM): 0.25% and 0.69% and 0.56%
- Apoptosis, Average (PC-9 cells; 8uM): 14.45
- Apoptosis (sum of Q2 and Q3) (PC-9 cells; 8uM): 10.39 and 18.02 and 14.93
- Lymphocytes/Q2: FITC-A+ , PI-A+ Freq. of Parent (PC-9 cells; 8uM): 9.22% and 16.0% and 13.2%
- Lymphocytes/Q3: FITC-A+ , PI-A- Freq. of Parent (PC-9 cells; 8uM): 1.17% and 2.02% and 1.73%
- Apoptosis, Average (PC-9 cells; 12uM): 35.74
- Apoptosis (sum of Q2 and Q3) (PC-9 cells; 12uM): 33.11 and 39.69 and 34.42
- Lymphocytes/Q2: FITC-A+ , PI-A+ Freq. of Parent (PC-9 cells; 12uM): 28.20% and 34.7% and 29.1%
- Lymphocytes/Q3: FITC-A+ , PI-A- Freq. of Parent (PC-9 cells; 12uM): 4.91% and 4.99% and 5.32%
- Percentage of apoptosis, Average (H460 cells; H460, 4uM): 9.783%
- Q2+Q3 (H460 cells; H460, 4uM): 0.1032 and 0.0852 and 0.1051
- Lymphocytes/Q2: FITC-A+ , PI-A+ Freq. of Parent (H460 cells; H460, 4uM): 5.85% and 4.70% and 6.80%
- Lymphocytes/Q3: FITC-A+ , PI-A- Freq. of Parent (H460 cells; H460, 4uM): 4.47% and 3.82% and 3.71%
- Percentage of apoptosis (H460 cells; H460, 4uM): 10.32% and 8.52% and 10.51%
- Percentage of apoptosis, Average (H460 cells; H460, 8uM): 47.9767%
- Q2+Q3 (H460 cells; H460, 8uM): 0.4733 and 0.459 and 0.507
- Lymphocytes/Q2: FITC-A+ , PI-A+ Freq. of Parent (H460 cells; H460, 8uM): 41.3% and 35.4% and 44.0%
- Lymphocytes/Q3: FITC-A+ , PI-A- Freq. of Parent (H460 cells; H460, 8uM): 6.03% and 10.5% and 6.70%
- Percentage of apoptosis (H460 cells; H460, 8uM): 47.33% and 45.9% and 50.7%
- Percentage of apoptosis, Average (H460 cells; H460, 12uM): 72.3733%
- Q2+Q3 (H460 cells; H460, 12uM): 0.7923 and 0.7087 and 0.6702
- Lymphocytes/Q2: FITC-A+ , PI-A+ Freq. of Parent (H460 cells; H460, 12uM): 74.3% and 67.3% and 60.8%
- Lymphocytes/Q3: FITC-A+ , PI-A- Freq. of Parent (H460 cells; H460, 12uM): 4.93% and 3.57% and 6.22%
- Percentage of apoptosis (H460 cells; H460, 12uM): 79.23% and 70.87% and 67.02%
- cell apoptosis (flow cytometry) (H460 cells; H460, 4, 8 and 12 μM, 48 h): significant cell apoptosis

Reference: article PMC8776995 (Frontiers in Chemistry, 2022)
